# From patent publication US7396835B2, “Process for the preparation of tubulin inhibitors” (Wyeth, priority 2003, dated 2008)
# Structures can show the parent of a compound that is named as a salt.
# Assay: Water uptake and stability of the succinate salt under relative humidity
# Assay type: physicochemical
# Conditions: about 20° C. to about 30° C.
# Protocol: To a suspension of NaH (40.9 g, 1.02 mol, 60% in oil) in anhydrous THF (750 mL) is added 3-methylamino-propan-1-ol (115 g, 1.21 mol) at about 20-30° C. dropwise over 30 min. The mixture is stirred for 30 min. Then, a solution of [5-chloro-6-(2,4,6-trifluoro-phenyl)-[1,2,4]triazolo[1,5-a]pyrimidin-7-yl]-((1S)-2,2,2-trifluoro-1-methyl-ethyl)-amine (150 g, 0.379 mol) in THF (150 mL) is added slowly over 15 min. The mixture is heated to 60° C. and stirred for 16 h, then cooled to 0-6° C. Cold water (1500 mL) is added dropwise while maintain the temperature between 10±3° C. THF is removed by distillation. The reaction mixture is extracted with t-butylmethyl ether (TBME, 2×1000 mL) and to the separated aqueous phase is added in portions succinic acid (296 g, 2.51 mol) is added in portions and followed by addition of TBME (1000 mL). The mixture is cooled to 3±3° C. and stirred for 1 h. The crude solid product is filtered, washed with cold water (150 mL) and TBME (2×400 mL). The wet solid is dissolved into water (2000 mL) at about 75° C. The solution is filtered at 60-70° C. and cooled to 0° C. over 1 h and stirred for 1 h at this temperature. The solid is filtered and dried at 35° C./10 mmHg for 20 h to give a white solid in anhydrous form (175 g, 80%, >99% HPLC area purity and 99% ee). […]
structure (smiles),measurement,setting,value
"CNCCCOc1cc(F)c(-c2c(Cl)nc3ncnn3c2N[C@@H](C)C(F)(F)F)c(F)c1 [Example 4, 5-Chloro-6-{2,6-difluoro-4-[3-(methylamino)propoxy]phenyl}-N-[(1S)-2,2,2-trifluoro-1-methylethyl][1,2,4]triazolo[1,5-a]pyrimidin-7-amine Succinate Salt Dihydrate]",stability of the dihydrate,5%-100% relative humidity,stable
same,water absorbed by the anhydrous compound,"anhydrous succinate salt, drying dish of 80%-100% relative humidity, 24 h, uptake then stopped",5.8 % wt
